Where “and” joins values, the source holds several entries; their conditions need not be identical. Equal entries are not always repeated.
Tested on: P[…] (PYRIOR)
Design: species or system Pyricularia oryzae
Conditions: in vivo

Compound: Cc1cccc2sc3nncn3c12 [TCA, 5-methyl-1,2,4-triazolo[3,4-b][1,3]benzothiazole]
- PYRIOR (% DC) Observed: 100% and 95% and 50.2%
